Holding throughout (assay): NCI anticancer screen, dose series, 48 h
The test system of experiment [1] is MCF7.
For experiment [2], the system named is PC-3.
Experiment [3] relates to IGROV-1.
The test system of experiment [4] is OVCAR-3.
Experiment [5] relates to HCT-116.
Experiment [6] relates to DU-145.
Experiment [7] concerns BT-549.
The test system of experiment [8] is SR.
Experiment [9] relates to SF-295.
Experiment [10] concerns SK-MEL-2.
Experiment [11] has as its system COLO 205.
The subject of experiment [12] is HOP-92.
Experiment [13] deals with OVCAR-5.
For experiment [14], the system named is SK-MEL-28.
Experiment [15] relates to NCI/ADR-RES.
Experiment [16] deals with HT-29.
In experiment [17] the test system is EKVX.
Experiment [18] has as its system RPMI-8226.
Experiment [19] has as its system A549.
In experiment [20] the test system is OVCAR-8.

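All cell lines were grown in 96-well plates and treated with compound for 48 hours. Here, GI50 denotes the concentration required for 50% inhibition of growth.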 Active and inactive are the calls of the source. Rule as the data show it: active = GI50 up to about 1.1 µM and inactive = higher. *1 amine or outer side, *2 acyl side, *3 side chain or, on linkers, in order; H or OH if unused. Where a SMILES comes first, the peptide text is derived from it. Bridges are numbered along the chain shown (N, C = ends). Roman numbers before positions name the chains, in order. [ ]: non-standard residue; d: D form. Actinocin(1to9) = Cc1c2oc3c(C)ccc(C(=O)[*:2])c3nc-2c(C(=O)[*:1])c(N)c1=O; NMeV = CN[CH](C(=O)O)C(C)C; Sar = CNCC(=O)O Some results are limits rather than exact numbers.

The values that follow come from ChEMBL document CHEMBL1201862, “PubChem BioAssay data set” (2004).

For `Cc1ccc(SC(=O)N2C(=S)N=C(NC3CCCCC3)C23CCCCC3)cc1`, the GI50 was 51.2 µM (inactive) in [1]; 44.6 µM (inactive) in experiment [2]; 36.1 µM (inactive) in [3]; 50.6 µM (inactive) in experiment [4]; > 100 µM (inactive) in experiment [5]; > 100 µM (inactive) in experiment [6]. The GI50 was 57.5 µM (inactive) in experiment [7]; 57.7 µM (inactive) in experiment [8]; > 100 µM (inactive) in [9]; > 100 µM (inactive) in experiment [10]; 43.4 µM (inactive) in experiment [11]; > 100 µM (inactive) in [12]. In addition, the GI50 in experiment [13] was > 100 µM (inactive); in [14], > 100 µM (inactive); in experiment [15] it was > 100 µM (inactive); in [16], 57.9 µM (inactive); in [17], > 100 µM (inactive); in experiment [18], > 100 µM (inactive). For the same molecule, the GI50 in experiment [19] is 75.5 µM (inactive).

With `COC(=O)c1c(O)ccc2c1c1c(n2C)C(=O)c2ccccc2C1=O`, the GI50 is 9.18 µM (inactive) in experiment [1]; 23.3 µM (inactive) in experiment [2]; 4 µM (inactive) in [3]; 35.3 µM (inactive) in experiment [4]; 17.8 µM (inactive) in experiment [20]; 12.2 µM (inactive) in experiment [5]. In addition, the GI50 in experiment [6] is 11.9 µM (inactive); in [7], 10.4 µM (inactive); in [8], 16.2 µM (inactive); in experiment [9], 22.5 µM (inactive); in experiment [10] it was 25.4 µM (inactive); in [11] it was 65.9 µM (inactive). The GI50 is 2.28 µM (inactive) in [12]; 85.3 µM (inactive) in [13]; 32.7 µM (inactive) in experiment [14]; 43.7 µM (inactive) in experiment [15]; 78.2 µM (inactive) in [16]; 42 µM (inactive) in experiment [17]. Besides, the GI50 in experiment [18] is 4.78 µM (inactive); in [19], 14.5 µM (inactive).

Take `CCC(C)C1NC(=O)C(NC(=O)c2c3nc4c(C(=O)NC5C(=O)NC(C(C)C)C(=O)N6CCCC6C(=O)N(C)CC(=O)N(C)C(C(C)C)C(=O)OC5C)ccc(C)c4oc-3c(C)c(=O)c2N)C(C)OC(=O)C(C(C)C)N(C)C(=O)CN(C)C(=O)C2CCCN2C1=O` (configuration not stated) (I: TIP[Sar][NMeV] / II: TVP[Sar][NMeV]; ester I:1-I:C, II:1-II:C; linker I:N-II:N via Actinocin(1to9); configuration not given here): the GI50 in experiment [1] is < 0.0001 µM (active); in experiment [2], 0.000346 µM (active); in [3], 0.00393 µM (active); in experiment [4], 0.0185 µM (active); in experiment [20] it was 0.000443 µM (active); in [5], < 0.0001 µM (active). For the same molecule, the GI50 in [6] was 0.00475 µM (active); in experiment [7] it was 0.00247 µM (active); in experiment [8], 0.000244 µM (active); in experiment [9], 0.000353 µM (active); in experiment [10], 0.00172 µM (active); in experiment [11], < 0.0001 µM (active). Moreover, the GI50 was 0.00161 µM (active) in experiment [12]; 0.000586 µM (active) in experiment [13]; 0.000733 µM (active) in experiment [14]; 0.156 µM (active) in [15]; < 0.0001 µM (active) in experiment [16]; 0.00377 µM (active) in experiment [17]. Further, the GI50 in experiment [18] was < 0.0001 µM (active); in experiment [19] it was 0.000431 µM (active).

On to `Nc1ccc2c3c1cccc3c(=O)n1c3ccc(Cc4ccc5c(c4)nc4c6ccc(N)c7cccc(c(=O)n54)c76)cc3nc21`, for which the GI50 in experiment [1], in [2], in experiment [3], in experiment [4], in experiment [20] and in experiment [5] was > 100 µM (inactive) each time. Also, the GI50 in experiment [6], in [7], in experiment [8], in experiment [9], in experiment [10] and in experiment [11] was > 100 µM (inactive) in each case. Further, the GI50 in experiment [12], in experiment [13], in experiment [14], in [15], in [16] and in [17] was > 100 µM (inactive) throughout. Besides, the GI50 in experiment [18] and in experiment [19] was > 100 µM (inactive) each time.

For `Cc1ccc(N2C(N)=C(C#N)C(C#N)(C#N)C2c2ccccc2)cc1` (configuration not stated), the GI50 in experiment [1] is 4.95 µM (inactive); in experiment [2] it was 18.8 µM (inactive); in experiment [3], 6.67 µM (inactive); in experiment [4], 13.7 µM (inactive); in experiment [20], 20 µM (inactive); in [5], 3.79 µM (inactive). For the same molecule, the GI50 is 14.9 µM (inactive) in experiment [6]; 10.2 µM (inactive) in experiment [7]; 8.65 µM (inactive) in experiment [8]; 18.9 µM (inactive) in experiment [9]; 13.6 µM (inactive) in experiment [10]; 10.2 µM (inactive) in experiment [11]. Also, the GI50 in experiment [12] is 7.78 µM (inactive); in experiment [13], 15.5 µM (inactive); in experiment [14], 10.1 µM (inactive); in experiment [15], 17 µM (inactive); in experiment [16] it was 3.97 µM (inactive); in [17], 18 µM (inactive). The GI50 in [18] was 11.4 µM (inactive); in experiment [19], 16.6 µM (inactive).

In the case of `CC(C)(C)C1CCC2c3c([nH]c4ccccc34)C3C(=O)N(c4cc(Br)cc(Br)c4)C(=O)C3C2C1` (configuration not stated), the GI50 was 3.2 µM (inactive) in experiment [1]; 9.95 µM (inactive) in experiment [2]; 70.3 µM (inactive) in [3]; > 10 µM (inactive) in experiment [4]; 16 µM (inactive) in [20]; 4.34 µM (inactive) in experiment [5]. Also, the GI50 in experiment [6] is 21.4 µM (inactive); in experiment [7], 33.9 µM (inactive); in experiment [8] it was 7.89 µM (inactive); in [10], 26.7 µM (inactive); in experiment [11] it was 19.6 µM (inactive); in [12], 2.63 µM (inactive). Besides, the GI50 in experiment [13] is 31.6 µM (inactive); in experiment [14], 13.2 µM (inactive); in [15] it was 14.6 µM (inactive); in experiment [16], 9.89 µM (inactive); in experiment [17], 6.58 µM (inactive); in experiment [18], 36.4 µM (inactive). Moreover, in [19], the GI50 was 14.8 µM (inactive).

Consider `COC(=O)C1=C(C(=O)OC)C(C(=O)c2ccc(Br)cc2)N2N=C(c3ccc(Cl)cc3)C=CC12` (configuration not stated), for which the GI50 in [1] was 82.8 µM (inactive); in experiment [2] it was 80.4 µM (inactive); in experiment [3], > 100 µM (inactive); in experiment [4], > 100 µM (inactive); in [20], > 100 µM (inactive); in [5], > 100 µM (inactive). In addition, the GI50 in experiment [6] was > 100 µM (inactive); in experiment [7], 34.8 µM (inactive); in experiment [8] it was 40.6 µM (inactive); in experiment [9] it was 67 µM (inactive); in [10] it was > 100 µM (inactive); in [11] it was > 100 µM (inactive). The GI50 is 72.1 µM (inactive) in experiment [12]; > 100 µM (inactive) in experiment [13]; > 100 µM (inactive) in [14]; > 100 µM (inactive) in experiment [15]; > 100 µM (inactive) in [17]; > 100 µM (inactive) in [18]. The GI50 in experiment [19] is 98.2 µM (inactive).
